Laboratory results as given in PMC6054100, “Exploring the chemical space of the lysine-binding pocket of the first kringle domain of hepatocyte growth factor/scatter factor (HGF/SF) yields a new class of inhibitors of HGF/SF-MET binding” (Chemical Science, 2015).
Read-outs that look alike come from different tables or passages of the source.

Legend:
NK1 [1] = target: T1, NK1 (Homo sapiens, UniProt P14210); experiment: SPR fragment library screening against NK1; assay type: binding; set-up: made in house; host or cells: Pichia pastoris; conditions: for Ranking order: based on fragment screening, rank among the 71 NK1 hits (ESI Tables S3-S7); for SPR response: normalised relative value against NK1
Description: Supplementary Materials and Methods
Fragment library screening and data analysis
Met567 (soluble truncated f ragment of the MET ectodomain, residues 25- 567), NK1 and t he SPH domain were immobilized on CM5 chips by amine coupling. NK1 was diluted into 10 m M phosphate pH 7.0 and the SPH domain into 10 mM acetate pH 5.5 to a final concentration of 2.5 μM and 1 μM, respectively, for coupling. The immobilization wizard within the Biacore T100 software was set to “aim for immobiliz ed level” of 8000 RU to achieve complete saturation of the chip surface.
W ith minor deviations, the procedure and conditions outlined below were used f or a ll screening s of an in-house fragment library of 1338 members against individual target proteins. The running buffer was PBS pH 7.4, 0.05% Tween 20, 0.25% DMSO (1% DMSO for Met567). Fragments were stored as 100 mM stock solutions in DMSO. Prior to screening, fragment samples were diluted to 500 μM (1 mM f or Met567) in running buffer.
Screening was performed in 96- we ll plates at a flow rate of 30 μl min-1 with 1 min sample injection f ollowed by dissociation f or 1 min and surf ace regeneration using 1 M NaCl f or 30 […]
post-regeneration baseline exceeded the pre- sample baseline by more than 10 RU, a second regeneration cycle with 50% ethylene glycol was used. In order to be able to correct for small variations in DMSO concentration between samples, eight solvent samples ranging from 0.012 to 1.5% DMSO were injected every 40th cycle. To monitor the binding capacity of the NK1, SPH and Met567 surfaces throughout the screening, injections of 500 μM HEPES (NK1), 0.25 μM Met567 (SPH) and 0.2 μM NK1 and 1% DMSO (Met567) were carried out every 40th cycle. The flow cell temperature was 25°C. NK1 and the SPH domain were immobilized on the same chip (channels 2 and 3 respectively) and were theref ore screened in parallel. Met567 was screened separately and results are published in an accompanying paper (W in t er et al. 2015, in revision).
For data analysis, fir st, all responses were reference and solvent corrected. 1 Next, equilibrium binding for every fragment was determined and hits established by applying several filters: sensorgram shape, upper and lower threshold. Typical sensorgrams from fragment screening show “square curves” in SPR due to the fast on and off rates and fragments not showing this response were discarded from further analysis. Binding levels are represented as response units (RU) but the SPR signal is a convolution of multiple parameters including target coupling density, target -binding activity, target molecular weight and molecular weight of each injected fragment. To be able to identif y hits accurately and to be able to compare responses between different plates and targets, data were normalised against these factors. First the theoretical maximum response for each fragment was calculated using equation 1:
RRmmm = CCCCCCCC ddCdCdd× MMffmCmdCd (Equation 1)
This RUmax value diff ers for each protein target because it depends on the molecular weight of the protein and the amount of protein immobilized on the chip (coupling density). The RUmax was then used to calculate the normalised relative SPR response:
NNNNNNNNNN NNNNr NrN SSR NNNrNrNN = RRcppppcppc× 100% (Equation 2) […]
fragment should cause upon binding. 100% response would be 1:1 binding wit h levels above 100% implying over-stoichiometric binding. […]
Fragment library screening to identify small molecule binders

NK1 [2] = target: T1, NK1; experiment: SPR steady-state binding to immobilized NK1 (Biacore T100); set-up: made in house; host or cells: Pichia pastoris
Description: Binding constants of piperazine-like compounds and fragments were determined using a Biacore T100 instrument. NK1 was immobilized on a CM5 chip by amine coupling to a density of 6000 RU. Compounds were stored as 100 mM stock solutions in water and serial dilutions were prepared in the running buffer (PBS pH 7.4, 0.05% Tween 20). The compound solutions were injected onto the surface of the chip at a flow rate of 30 μL min^–1, contact time was 1 min and dissociation time 1 min. Sensorgrams were analysed using the Biacore T100 evaluation software and the binding constants determined.

[3] = fragments 500 μM (ESI Tables S3-S7)
[4] = steady-state binding constant from SPR (ESI Tables S3-S7), read-out: KD
[5] = steady-state binding constant from SPR, fragment hits (Table 3, text), read-out: KD
[6] = initial fragment screening, fragments 500 μM (Table 3)
[7] = steady-state binding constant from SPR, MB605-related compounds (Table 4), read-out: KD

T1 sequence (P14210 32-210 isoform P14210-6 limits assumed): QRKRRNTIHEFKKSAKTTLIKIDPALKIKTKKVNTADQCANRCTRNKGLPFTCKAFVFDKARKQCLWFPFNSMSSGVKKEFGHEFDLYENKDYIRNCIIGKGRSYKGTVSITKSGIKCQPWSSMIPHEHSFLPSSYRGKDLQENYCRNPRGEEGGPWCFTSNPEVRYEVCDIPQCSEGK

Ranking order (NK1 [1])	SPR response (NK1 [1]; [3]) [%]	Compound	also measured
52	49	Cc1csc(C(=O)O)c1 [MB921]	
60	35	CC1CCN(C(=O)C2CCCCN2)CC1 (stereo not shown) [MB1015]	
58	37	CCOC(=O)c1cnc2n(c1=O)CCS2 [MB415]	
31	62	COC(=O)c1ccc(C)c(Cl)c1 [MB1307]	
17	87	O=C(O)c1coc2c1C(=O)CCC2 [MB417]	Kd (NK1 [2]; [5]): 420 ± 40 µM; SPR response (NK1 [1]; [6]): 87%
25	70	COC(=O)c1ccc(F)cc1Cl [MB1301]	
40	56	OC12CC3CC(CC(C3)C1)C2 [MB405]	
68	28	O=C(C1CCCCO1)N1CCCC1 (stereo not shown) [MB1067]	
56	38	Cc1ncsc1C(=O)O [MB996]	
62	34	O=C(C1CCOCC1)N1CCCCC1 [MB1066]	
43	53	NC(=S)N1CCOCC1 [MB1082]	Kd (NK1 [2]; [5]): 370 ± 40 µM; SPR response (NK1 [1]; [6]): 53%
57	38	CN(C)C(=O)C1CCOCC1 [MB1065]	
71	26	CC(C)(N)CN1CCCC1 [MB1017]	
49	50	CSc1ccc(C(=O)O)s1 [MB1217]	
61	35	CCC1CCC(N)CC1 (stereo not shown) [MB1016]	
29	63	CN(C)C(=O)c1ccc2nccnc2c1 [MB1058]	
33	61	Cc1cc(Cl)ccc1C(=O)O [MB1318]	Kd (NK1 [2]; [5]): 360 ± 40 µM; SPR response (NK1 [1]; [6]): 61%
11	98	COC(=O)c1ccccc1F [MB1253]	Kd (NK1 [2]; [4]): 2900 µM
64	34	COC(=O)c1scc(C)c1Cl [MB916]	
45	53	Cc1nc(CC(=O)O)cs1 [MB895]	Kd (NK1 [2]; [5]): 430 ± 50 µM; SPR response (NK1 [1]; [6]): 53%
37	57	NC(=S)c1ncc(C(F)(F)F)cc1N1CCCC1 [MB1218]	Kd (NK1 [2]; [4]): 17300 µM
63	34	COC(=O)c1sc(C(C)(C)C)cc1N [MB914]	
65	33	N#CCCNCC1CCCO1 (stereo not shown) [MB975]	
69	28	O=C(O)c1ccccc1C(=O)c1ccc(F)cc1 [MB900]	
38	56	O=C(O)c1ccc2[nH]ncc2c1 [AT0541]	
35	60	CC(=O)NCc1cccnc1 [MB1317]	
42	54	CC1(C(=O)O)CC2C=CC1C2 (stereo not shown) [MB385]	
67	30	O=C(O)C1CCNCC1 [MB1129]	
50	50	NC(=O)c1ccc(-c2csnn2)cc1 [MB414]	

The remaining lines, values behind:

Compound	Ranking order (NK1 [1])	SPR response (NK1 [1]; [3]) [%]	also measured
Cc1nn(C)c(C)c1N [MB893]	36	59	Kd (NK1 [2]; [4]): 1500 µM
COc1ccc(C#N)cn1 [MB1261]	12	95	Kd (NK1 [2]; [5]): 350 ± 40 µM; SPR response (NK1 [1]; [6]): 95%
c1ccc2[nH]ncc2c1 [AT0381]	44	53	Kd (NK1 [2]; KD): 740 ± 60 µM; SPR response (NK1 [1]; [6]): 53%
O=C(O)CCc1ccc(-c2ccccc2F)o1 [T5445870]			Kd (NK1 [2]; [7]): 2100 ± 300 µM
COC(=O)CSc1ccccc1 [MB1308]	34	60	
Cc1cc(N)[nH]n1 [MB936]	39	56	Kd (NK1 [2]; [4]): 30000 µM
Nc1ncccn1 [CA023]	46	52	Kd (NK1 [2]; [5]): 770 ± 60 µM; SPR response (NK1 [1]; [6]): 52%
Cc1nc(C#N)cs1 [MB1250]	3	126	Kd (NK1 [2]; [4]): 1800 µM
COC(=O)c1ccccc1OC(F)(F)F [MB1292]	30	63	
O=P(O)(O)CCc1ccccc1 [4672-30-4, 2-phenylethyl phosphonic acid]			Kd (NK1 [2]; [7]): 2200 ± 400 µM
Cc1nc(C(N)=S)cs1 [MB1252]	10	101	Kd (NK1 [2]; [4]): 5200 µM
Cn1ccc(C(F)(F)F)n1 [MB926]	66	30	
NC(=O)Cc1ccc(O)cc1 [MB1174]	53	43	
Cc1ccsc1CN [MB1237]	4	118	Kd (NK1 [2]; [4]): 4200 µM
Cc1cccc(CO)n1 [MB389]	23	72	Kd (NK1 [2]; [4]): 4320 µM
O=C(O)CCc1cccs1 [5928-51-8, 2-thiophenepropanoic acid]			Kd (NK1 [2]; [7]): 1100 ± 300 µM
FC(F)(F)c1cc[nH]n1 [MB925]	48	52	Kd (NK1 [2]; [4]): 1300 µM
Cc1nc(C(C)(C)C)cs1 [MB887]	32	62	

Compound	Ranking order (NK1 [1])	SPR response (NK1 [1]; [3]) [%]	also measured
CCc1cccc(C(C)=O)c1 [MB1300]	14	93	
Nc1ccc(F)cc1F [MB396]	18	83	Kd (NK1 [2]; [4]): 1100 µM
Nc1cccc(S(N)(=O)=O)c1 [MB409]	59	36	
CC(=O)c1ccc(OC(F)(F)F)cc1 [MB1291]	26	68	
O=C(O)CCc1ccccc1 [501-520-0, hydrocinnamic acid]			Kd (NK1 [2]; [7]): 2200 ± 900 µM
COc1cccc(OC)c1SC [MB894]	51	49	
Nc1ccc(OC(F)F)cc1 [MB1293]	22	72	Kd (NK1 [2]; [4]): 5000 µM
Nc1cccc(OC(F)(F)F)c1 [MB406]	54	42	
CNCc1ccncc1 [MB1003]	6	107	Kd (NK1 [2]; [4]): 6400 µM
Cc1cccc(CN)c1C [MB1274]	7	105	Kd (NK1 [2]; [4]): 1600 µM
O=C(O)CCc1cc2ccccc2o1 [T5480685]			Kd (NK1 [2]; [7]): 700 ± 200 µM
N#CCOc1cccc(C(F)(F)F)c1 [MB1251]	27	66	
CC(=O)Nc1ccccc1F [MB1267]	16	90	Kd (NK1 [2]; [4]): 1600 µM
Cc1noc(N)c1C [MB1136]	55	39	
NC(=O)Cc1ccc(F)cc1Cl [MB1321]	28	65	
Nc1ccc(OC(F)(F)F)cc1 [MB1100]	70	27	
Cc1cc(N)no1 [MB397]	20	81	
